Reference: patent publication US20170189507A1, “NOVEL PEPTIDES AND COMBINATION OF PEPTIDES FOR USE IN IMMUNOTHERAPY AGAINST VARIOUS CANCERS” (immatics biotechnologies GmbH, priority 2015, published 2017)

Legend:
CD8+ T cells = experiment: In vitro immunogenicity: T-cell priming with aAPCs loaded with peptide/MHC complexes and anti-CD28 antibody, pMHC multimer readout; format: cell-based, human; settings: in vitro immunogenicity of HLA class I peptides; peptide-specific multimer+ wells after aAPC priming of CD8+ T cells
Method: In an aspect, the peptides are pre-screened for immunogenicity before being included in the warehouse. By way of example, and not limitation, the immunogenicity of the peptides included in the warehouse is determined by a method comprising in vitro T-cell priming through repeated stimulations of CD8+ T cells from healthy donors with artificial antigen presenting cells loaded with peptide/MHC complexes and anti-CD28 antibody.
In order to obtain information regarding the immunogenicity of the TUMAPs of the present invention, the inventors performed investigations using an in vitro T-cell priming assay based on repeated stimulations of CD8+ T cells with artificial antigen presenting cells (aAPCs) loaded with peptide/MHC complexes and anti-CD28 antibody.
In order to perform in vitro stimulations by artificial antigen presenting cells loaded with peptide-MHC complex (pMHC) and anti-CD28 antibody, the inventors first isolated CD8+ T cells from fresh HLA-A*02 leukapheresis products via positive selection using CD8 microbeads (Miltenyi Biotec, Bergisch-Gladbach, Germany) of healthy donors obtained from the University clinics Mannheim, Germany, after informed consent.
PBMCs and isolated CD8+ lymphocytes were incubated in T-cell medium (TCM) until use consisting of RPMI-Glutamax (Invitrogen, Karlsruhe, Germany) supplemented with 10% heat inactivated human AB serum (PAN-Biotech, Aidenbach, Germany), 100 U/ml Penicillin/100 μg/ml Streptomycin (Cambrex, Cologne, Germany), 1 mM sodium pyruvate (CC Pro, Oberdorla, Germany), 20 μg/ml Gentamycin (Cambrex). 2.5 ng/ml IL7 (PromoCell, Heidelberg, Germany) and 10 U/ml IL-2 (Novartis Pharma, Nurnberg, Germany) were also added to the TCM at this step.
Generation of pMHC/anti-CD28 coated beads, T-cell stimulations and readout was performed in a highly defined in vitro system using four different pMHC molecules per stimulation condition and 8 different pMHC molecules per readout condition.
The purified co-stimulatory mouse IgG2a anti human CD28 Ab 9.3 (Jung et al., 1987) was chemically biotinylated using Sulfo-N-hydroxysuccinimidobiotin as recommended by the manufacturer (Perbio, Bonn, Germany). Beads used were 5.6 μm diameter streptavidin coated polystyrene particles (Bangs Laboratories, Illinois, USA).
pMHC used for positive and negative control stimulations were A*0201/MLA-001 (peptide […] (SEQ ID NO. 303) from modified Melan-A/MART-1) and A*0201/DDX5-001 ([…] from DDX5, SEQ ID NO. 304), respectively.
800.000 beads/200 μl were coated in 96-well plates in the presence of 4×12.5 ng different biotin-pMHC, washed and 600 ng biotin anti-CD28 were added subsequently in a volume of 200 μl. Stimulations were initiated in 96-well plates by co-incubating […] CD8+ T cells with 2×10^5 washed coated beads in 200 μl TCM supplemented with 5 ng/ml IL-12 (PromoCell) for 3 days at 37° C. Half of the medium was then exchanged by fresh TCM supplemented with 80 U/ml IL-2 and incubating was continued for 4 days at 37° C. This stimulation cycle was performed for a total of three times. For the pMHC multimer readout using 8 different pMHC molecules per condition, a twodimensional combinatorial coding approach was used as previously described (Andersen et al., 2012) with minor modifications encompassing coupling to 5 different fluorochromes. Finally, multimeric analyses were performed by staining the cells with Live/dead near IR dye (Invitrogen, Karlsruhe, Germany), CD8-FITC antibody clone SK1 (BD, Heidelberg, Germany) and fluorescent pMHC multimers. For analysis, a BD LSRII SORP cytometer equipped with appropriate lasers and filters was used. Peptide specific cells were calculated as percentage of total CD8+ cells. Evaluation of multimeric analysis was done using the FlowJo software (Tree Star, Oregon, USA). In vitro priming of specific multimer+ CD8+ lymphocytes was detected by comparing to negative control stimulations.

HLA-A*24 = experiment: MHC binding assay (UV-ligand exchange, beta2m ELISA), HLA-A*24; design: species or system human; settings: MHC class I binding score, peptide exchange yield
Source text: Candidate peptides for T cell based therapies according to the present invention were further tested for their MHC binding capacity (affinity). The individual peptide-MHC complexes were produced by UV-ligand exchange, where a UV-sensitive peptide is cleaved upon UV-irradiation, and exchanged with the peptide of interest as analyzed. Only peptide candidates that can effectively bind and stabilize the peptide-receptive MHC molecules prevent dissociation of the MHC complexes. To determine the yield of the exchange reaction, an ELISA was performed based on the detection of the light chain ([…] of stabilized MHC complexes. The assay was performed as generally described in Rodenko et al. (Rodenko et al., 2006).
96 well MAXISorp plates (NUNC) were coated over night with 2 ug/ml streptavidin in PBS at room temperature, washed 4× and blocked for 1 h at 37° C. in 2% BSA containing blocking buffer. Refolded HLA-A*02:01/MLA-001 monomers served as standards, covering the range of 15-500 ng/ml. Peptide-MHC monomers of the UV-exchange reaction were diluted 100 fold in blocking buffer. Samples were incubated for 1 h at 37° C., washed four times, incubated with 2 ug/ml HRP conjugated anti-β2m for 1 h at 37° C., washed again and detected with TMB solution that is stopped with […]. Absorption was measured at 450 nm. Candidate peptides that show a high exchange yield (preferably higher than 50%, most preferred higher than 75%) are generally preferred for a generation and production of antibodies or fragments thereof, and/or T cell receptors or fragments thereof, as they show sufficient avidity to the MHC molecules and prevent dissociation of the MHC complexes.

Row | Substance | Wells positive [%] (CD8+ T cells) | Peptide exchange (HLA-A*24)
1 | 5 (GIVAHIQEV; listed as Homo sapiens) [compound 5] | + (<20% = +) | –
2 | 18 (ILLDLTDNRL; listed as Homo sapiens) [compound 18] | + (<20% = +) | –
3 | 23 (SLFSDEFKV; listed as Homo sapiens) [compound 23] | ++++ (>=70% = ++++) | –
4 | 26 (ALQEELTEL; listed as Homo sapiens) [compound 26] | + (<20% = +) | –
5 | 29 (YLLDPSITL; listed as Homo sapiens) [compound 29] | + (<20% = +) | –
6 | 31 (TITETTVEV; listed as Homo sapiens) [compound 31] | + (<20% = +) | –
7 | 35 (FLLPFSTVYL; listed as Homo sapiens) [compound 35] | + (<20% = +) | –
8 | 90 (FLQDLEQRL; listed as Homo sapiens) [compound 90] | + (<20% = +) | –
9 | 141 (FLDKVLVAA; listed as Homo sapiens) [compound 141] | + (<20% = +) | –
10 | 149 (ILNTHITEL; listed as Homo sapiens) [compound 149] | + (<20% = +) | –
11 | 160 (VYTLDIPVL; listed as Homo sapiens) [compound 160] | – | ++++ (>=75% = ++++)
12 | 161 (IYLVSIPEL; listed as Homo sapiens) [compound 161] | – | ++++ (>=75% = ++++)
13 | 166 (YYVESGKLF; listed as Homo sapiens) [compound 166] | – | ++++ (>=75% = ++++)
14 | 168 (KYQDILETI; listed as Homo sapiens) [compound 168] | – | ++++ (>=75% = ++++)
15 | 172 (TYTTVPRVAF; listed as Homo sapiens) [compound 172] | – | ++++ (>=75% = ++++)
16 | 173 (IYSWILDHF; listed as Homo sapiens) [compound 173] | – | ++++ (>=75% = ++++)
17 | 175 (YYEVHKELF; listed as Homo sapiens) [compound 175] | – | ++++ (>=75% = ++++)
18 | 177 (VYPWLGALL; listed as Homo sapiens) [compound 177] | – | ++++ (>=75% = ++++)
19 | 179 (MYDSYWRQF; listed as Homo sapiens) [compound 179] | – | ++++ (>=75% = ++++)
20 | 181 (LYLDIINLF; listed as Homo sapiens) [compound 181] | – | ++++ (>=75% = ++++)
21 | 184 (VFQNFPLLF; listed as Homo sapiens) [compound 184] | – | ++++ (>=75% = ++++)
22 | 186 (IFPQFLYQF; listed as Homo sapiens) [compound 186] | – | ++++ (>=75% = ++++)
23 | 187 (TYLRDQHFL; listed as Homo sapiens) [compound 187] | – | ++++ (>=75% = ++++)
24 | 192 (SYALLTYMI; listed as Homo sapiens) [compound 192] | – | ++++ (>=75% = ++++)
25 | 193 (RFHPTPLLL; listed as Homo sapiens) [compound 193] | – | ++++ (>=75% = ++++)
26 | 194 (EFGSLHLEFL; listed as Homo sapiens) [compound 194] | – | + (<20% = +)

Row | Substance | Wells positive [%] (CD8+ T cells) | Peptide exchange (HLA-A*24)
27 | 195 (TYSVSFPMF; listed as Homo sapiens) [compound 195] | – | ++++ (>=75% = ++++)
28 | 196 (LYIDRPLPYL; listed as Homo sapiens) [compound 196] | ++++ (>=70% = ++++) | –
29 | 197 (EYSLFPGQVVI; listed as Homo sapiens) [compound 197] | + (<20% = +) | –
30 | 202 (VYWDSAGAAHF; listed as Homo sapiens) [compound 202] | – | ++++ (>=75% = ++++)
31 | 207 (AYVVFVSTL; listed as Homo sapiens) [compound 207] | + (<20% = +) | –
32 | 210 (IYTMIYRNL; listed as Homo sapiens) [compound 210] | – | ++++ (>=75% = ++++)
33 | 211 (YYLEVGKTLI; listed as Homo sapiens) [compound 211] | – | ++++ (>=75% = ++++)
34 | 216 (QYSSVFKSL; listed as Homo sapiens) [compound 216] | – | ++++ (>=75% = ++++)
35 | 217 (FFPPTRQMGLLF; listed as Homo sapiens) [compound 217] | – | ++++ (>=75% = ++++)
36 | 218 (YYKSTSSAF; listed as Homo sapiens) [compound 218] | + (<20% = +) | –
37 | 227 (IFLDYEAGTLSF; listed as Homo sapiens) [compound 227] | – | ++++ (>=75% = ++++)
38 | 228 (KYTSWYVAL; listed as Homo sapiens) [compound 228] | – | ++++ (>=75% = ++++)
39 | 230 (KLQNIMMLL; listed as Homo sapiens) [compound 230] | ++++ (>=70% = ++++) | –
40 | 267 (KYMVYPQTF; listed as Homo sapiens) [compound 267] | – | ++++ (>=75% = ++++)
41 | 268 (QYLGQIQHI; listed as Homo sapiens) [compound 268] | + (<20% = +) | –
42 | 269 (YFIDSTNLKTHF; listed as Homo sapiens) [compound 269] | + (<20% = +) | –
43 | 271 (LYHDIFSRL; listed as Homo sapiens) [compound 271] | – | ++++ (>=75% = ++++)
44 | 272 (QYLQDAYSF; listed as Homo sapiens) [compound 272] | – | ++++ (>=75% = ++++)
45 | 274 (AYLHSHALI; listed as Homo sapiens) [compound 274] | – | ++++ (>=75% = ++++)
46 | 276 (VYGFQWRHF; listed as Homo sapiens) [compound 276] | – | ++++ (>=75% = ++++)
47 | 277 (VYQGHTALL; listed as Homo sapiens) [compound 277] | – | ++++ (>=75% = ++++)
48 | 278 (RYISDQLFTNF; listed as Homo sapiens) [compound 278] | – | ++++ (>=75% = ++++)
49 | 280 (RYPDNLKHLYL; listed as Homo sapiens) [compound 280] | – | ++++ (>=75% = ++++)
50 | 282 (KFVDSTFYL; listed as Homo sapiens) [compound 282] | – | ++++ (>=75% = ++++)
51 | 285 (HYPPVQVLF; listed as Homo sapiens) [compound 285] | + (<20% = +) | –
52 | 289 (KYPVEWAKF; listed as Homo sapiens) [compound 289] | – | ++++ (>=75% = ++++)
